Experimental findings from patent publication US20230192607A1, “TRANSCRIPTIONAL ENHANCED ASSOCIATE DOMAIN (TEAD) TRANSCRIPTION FACTOR INHIBITORS AND USES THEREOF” (Dana-Farber Cancer Institute, Inc., priority 2019, published 2023) are described below.

“Also recorded” adds a separate entry of the source.

Assay [1] has as its system EGFR-mutant NSCLC cells. The experiment in a line: Caspase-3/7 activity monitoring (apoptosis). Type of assay: cell-based, human. The following applies: combined with osimertinib/trametinib vs osimertinib/trametinib alone. As to the method:
Cells were plated into 96-well plates at 3000 cells/well in 100 µl of growth medium. The next day, drugs were added onto cells in 50 µl containing CellEvent™ Caspase-3/7 Green ReadyProbes™ Reagent (Molecular Probes) as per manufacturer’s instructions (n=5-6 wells / condition). The wells were subsequently scanned every 2 hours using the Incucyte ZOOM live cell analysis system (Essen Bioscience) typically for a total of 72 hours. The acquired fluorescent signal for activated caspase-3/7 was normalized with well confluency at each timepoint (=normalized apoptosis). Peak apoptosis was determined as the highest normalized caspase-3/7 activity value during the assay.

The test system of assay [2] is YAP/TEAD interaction. The assay is described as follows: YAP/TEAD interaction assay (split Gaussia luciferase). Type of assay: cell-based. The following applies: HEK 293T cells. As to the method:
293T cells were plated in 24-well plates and transfected with N-GLuc-YAP and C-GLuc-TEAD using TransIT-293 (Mirus Bio). The pCMV-Red Firefly Luc Vector (Life Technologies) was used as an internal control. Cells were treated with indicated concentrations of compounds or vehicle control (DMSO) in duplicates. Luciferase activity was measured by Dual-Luciferase Assay (Promega, Madison, WI) according to the manufacturer’s manual.

Assay [3] deals with EGFR-mutant NSCLC cell lines. The assay is described as follows: Regrowth after drug washout and count of viable dormant cells. Type of assay: cell-based, human. As to the method:
To determine number of dormant cells after treatment, viable cells were manually counted from the Incucyte images. A total of 10-12 wells with 3 images per well was analyzed for each condition.

The target of assay [4] is TEAD2 protein (Homo sapiens, UniProt Q15562). The assay is described as follows: Mass spectrometry analysis of covalent labeling of TEAD2 protein. Type of assay: binding. The following applies: 20-fold molar excess, 6 hours at 37° C. As to the method: TEAD2 protein was incubated with DMSO or a 20-fold molar excess of MYF-01-37 for 6 hours at 37° C. Reactions were then analyzed by LC-MS using a Shimadzu autosampler and LC (Marlborough, MA) coupled to an LTQ ion trap mass spectrometer (ThermoFisher Scientific, San Jose, CA). Protein was injected onto a self packed column (0.5 mm I.D., packed 5 cm POROS 50R2 from Applied Biosystems, Framingham, MA), desalted for 4 minutes with 100% A (A=0.2 M acetic acid in water), eluted with a gradient (0-100% B in 1 minute; A=0.2 M acetic acid in water, B=0.2 M acetic acid in acetonitrile), and introduced to the mass spectrometer by electrospray ionization (spray voltage=4.5 kV). The mass spectrometer acquired full scan MS data (m/z 300-2000). […]
To identify the site of modification, labeled protein was diluted 1:1 with 100 mM ammonium bicarbonate, reduced with 10 mM DTT at 56° C. for 30 minutes, alkylated with 22.5 mM IAA for 30 minutes at room temperature, and then digested with trypsin overnight at 37° C. Tryptic peptides were desalted by C18 (SOLA, ThermoFisher Scientific), dried by vacuum centrifugation, reconstituted in 5% MeCN, 0.1% trifluoroacetic acid, and analyzed by nanoLC-ion mobility MS/MS using a NanoAcquity UPLC system (Waters Corp., Milford, MA) interfaced to a timsTOF Pro mass spectrometer (Bruker, Billerica, MA). […]

For assay [5], the system named is CTGF expression. The experiment in a line: QPCR analysis of YAP target gene CTGF expression. The settings on record: 24 hour treatment; for CTGF expression in cells overexpressing TEAD1 C359S mutant: PC-9 cells transduced with TEAD1 C359S. Type of assay: cell-based, human.
The test system of assay [6] is BMF expression. The assay is described as follows: QPCR analysis of BMF expression. Type of assay: cell-based, human. The settings on record: combined with osimertinib/trametinib, 24 hour treatment. As to the method:
Cells were plated at 15 × 10^4 cells / cm^2, treated the next day, and RNA samples were extracted at specified timepoints using the RNeasy Mini kit (Qiagen). The RNA concentrations were measured with Nanodrop (Thermo Fisher Scientific) and 1 µg of total RNA was used for cDNA synthesis using the QuantiTect Reverse Transcription Kit (Qiagen). The QPCR reactions were set up in 20 µl using Taqman Gene Expression Master Mix (Applied Biosystems, cat. 4369016), Taqman Gene Expression Assays (Applied Biosystems) as per manufacturer’s instructions, and 2 µl of 1:10 diluted cDNA. The following Taqman Gene Expression Assays were used in the study: CTGF (Hs01026927_ml), ANKDR1 (Hs00173317_ml), BMF (Hs00372937 _m1), SNAI1(Hs00195591_m1), SNAI2 (Hs00161904_m1), TWIST1 (Hs00361186_m1), TWIST2 (Hs02379973_s1), ZEB1 (Hs00232783_m1), ZEB2 (Hs00207691_m1), and ACTB (Hs01060665_g1). The reactions were run in StepOne Plus Real-time PCR System (Applied Biosystems) using default reaction settings. The gene expression levels were normalized to ACTB housekeeping gene expression levels in each sample. For the analysis of BMF expression in vivo, RNA was extracted from 25-30 mg snap-frozen tumor samples using RNeasy Mini kit according to the kit protocol. Reverse transcription and gene expression analyses were performed as above.

In assay [7] the test system is TEAD. The assay is described as follows: Competition pulldown with biotinylated MYF-01-37. Type of assay: cell-based. The settings on record: MDA-MB-231 cells pretreated 6 hours with 10, 25 and 50 µM. The procedure: MDA-MB-231 cells were incubated for 6 hours with 10, 25 and 50 µM MYF-01-37, followed by cell lysis. The lysates were subjected to pulldown with 50 µM biotinylated MYF-01-37 overnight, and the amount of TEAD pulled down was analyzed by western blotting.

The subject of assay [8] is YAP activity in PC-9 YAP reporter cells. The experiment in a line: Fluorescent YAP/Hippo pathway reporter assay (Incucyte live-cell imaging). Type of assay: cell-based, human. The settings on record: for YAP activity (reporter) induced by osimertinib/trametinib: compound added to osimertinib/trametinib. The procedure:
YAP activity -induced mCherry expression was quantified using the Incucyte ZOOM live-cell analysis system. The mCherry signal was normalized to well confluency at each time point. For simultaneous detection of YAP activity and apoptosis, the cells were plated as above, and treated in the presence of CellEvent™ Caspase-3/7 Green ReadyProbes™ Reagent (Molecular Probes) as per manufacturer’s instructions. The mCherry signal as well as the green fluorescence signal was quantified every 2 hours using Incucyte ZOOM.
Background: In a reporter assay the amount or activity of a reporter protein is the signal.

In assay [9] the test system is EGFR-mutant NSCLC cell lines. The assay is described as follows: Cell viability assay (Cell Titer Glo). Type of assay: cell-based, human. The following applies: several EGFR-mutant NSCLC cell lines.
Assay [10] relates to PC-9, HCC827 and HCC4006 cells. The procedure: PC-9, HCC827 and HCC4006 were plated into 6-well plates at 50 000 cells / well, and treated the next day with DMSO, 100 nM osimertinib or with the combination of 100 nM osimertinib and 30 nM trametinib in triplicate. […] After staining, cells were imaged (5 images / well), and stained cells were manually counted from the images.

Assay [11] relates to PC-9 cells. The assay is described as follows: Long-term cell growth assay (well confluency, Incucyte). The settings on record: continuous treatment with single-agent osimertinib (100 nM).

Sequence of TEAD2 protein (Q15562 whole entry): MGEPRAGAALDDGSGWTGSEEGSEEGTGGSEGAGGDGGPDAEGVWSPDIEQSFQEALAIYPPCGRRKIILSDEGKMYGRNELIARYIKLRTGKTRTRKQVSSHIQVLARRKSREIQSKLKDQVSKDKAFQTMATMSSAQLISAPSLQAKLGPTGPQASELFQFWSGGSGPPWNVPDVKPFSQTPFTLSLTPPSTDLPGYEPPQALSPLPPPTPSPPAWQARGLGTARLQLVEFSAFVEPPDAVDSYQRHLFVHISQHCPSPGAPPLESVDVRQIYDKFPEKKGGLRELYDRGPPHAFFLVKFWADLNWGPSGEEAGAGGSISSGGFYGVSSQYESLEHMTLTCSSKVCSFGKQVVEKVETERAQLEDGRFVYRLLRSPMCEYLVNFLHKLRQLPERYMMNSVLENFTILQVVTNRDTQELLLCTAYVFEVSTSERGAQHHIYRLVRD

`C=CC(=O)N1CCC(Nc2cccc(C(F)(F)F)c2C)C1` (centres unmarked) [MYF-01-37]: the apoptosis result in [1] is “significantly increased apoptosis”. Also, the YAP/TEAD interaction entry in assay [2] is “inhibition of direct YAP/TEAD interaction”. Moreover, the “dormant cells after treatment” value in assay [3] (PC-9 and HCC4006 cells, 10-day treatment in combination with osimertinib/trametinib vs osimertinib/trametinib alone) is given as “dramatic decrease in dormant cells”. Further, the “regrowth after one week triple combination followed by two weeks osimertinib/trametinib vs three-week continuous triple combination” value in [3] (PC-9 cells) was “identical potency”. Besides, the “site of covalent modification” value in assay [4] is “targeted cysteine 380”. Moreover, the “CTGF expression in cells overexpressing TEAD1 C359S mutant” value in assay [5] is “abrogated”. Also, in assay [5] (PC-9 cells), the CTGF expression entry was “reduction in canonical YAP target gene CTGF expression”. The BMF expression entry in [6] is recorded as “robust increase in BMF expression”. In addition, the “TEAD pull-down by biotinylated MYF-01-37 from whole-cell lysate” value in assay [7] is listed as “loss of direct TEAD pull-down”. Moreover, in assay [8], the “YAP activity (reporter) induced by osimertinib/trametinib” value is reported as “completely suppressed the increased YAP activity”. For the same molecule, the “cell viability as a single agent” value in [9] is “minimal impact on cell viability; also recorded: did not demonstrate single-agent toxicity”.
With `C=CC(=O)Nc1cc(Nc2nccc(-c3cn(C)c4ccccc34)n2)c(OC)cc1N(C)CCN(C)C` [osimertinib], the “cells positive for SA-β-Gal activity” value in assay [10] is “significantly smaller proportion”. Besides, in assay [8] (10-day treatment), the “proportion of YAP^high cells” value is listed as 40% and the “proportion of cells with absent YAP signal” value came to 60%. The “time to re-colonization of wells” value in assay [11] is given as no more than 8 weeks.
Regarding `O=c1[nH]c(-c2ccc(C(F)(F)F)cc2)nc2c1CSCC2` [XAV939], in assay [1], the apoptosis result is on record as “robust increase in apoptosis”. For the same molecule, in [3] (PC-9 cells), the “regrowth after one week triple combination followed by two weeks osimertinib/trametinib vs three-week continuous triple combination” value is reported as “identical potency”. In [3] (PC-9 cells, 21-day treatment combined with osimertinib/trametinib vs osimertinib/trametinib alone), the “number of dormant cells at the time of drug washout” value is on record as “dramatic decrease in the number of dormant cells”. In addition, the “regrowth of cells after drug washout” value in assay [3] (three-week treatment combined with osimertinib/trametinib, then washout) is given as “significant reduction in regrowth”. Besides, the “CTGF expression in cells overexpressing TEAD1 C359S mutant” value in assay [5] was “still able to inhibit CTGF expression”. For the same molecule, the BMF expression entry in assay [6] is given as “significantly increased BMF expression”. Besides, the “YAP activity (reporter) induced by osimertinib/trametinib” value in assay [8] was “completely blocked”.
With `O=C(CCl)c1ccccc1Nc1cccc(C(F)(F)F)c1` [TED-347], in [9], the “cell viability as a single agent” value was “significant toxicity”.
